Measured values as given in ChEMBL document CHEMBL3217638, “Synthetic modulators of the retinoic acid receptor-related orphan receptors” (Medchemcomm, 2013).
One block for each molecule: values may come before it.

Tests used:
[1] = target: T1, Nuclear receptor ROR-gamma (Homo sapiens, UniProt P51449); assay: Displacement of 25-[3H]hydroxycholesterol from ROR gamma (unknown origin) by competitive binding assay
T1 sequence (P51449 whole entry): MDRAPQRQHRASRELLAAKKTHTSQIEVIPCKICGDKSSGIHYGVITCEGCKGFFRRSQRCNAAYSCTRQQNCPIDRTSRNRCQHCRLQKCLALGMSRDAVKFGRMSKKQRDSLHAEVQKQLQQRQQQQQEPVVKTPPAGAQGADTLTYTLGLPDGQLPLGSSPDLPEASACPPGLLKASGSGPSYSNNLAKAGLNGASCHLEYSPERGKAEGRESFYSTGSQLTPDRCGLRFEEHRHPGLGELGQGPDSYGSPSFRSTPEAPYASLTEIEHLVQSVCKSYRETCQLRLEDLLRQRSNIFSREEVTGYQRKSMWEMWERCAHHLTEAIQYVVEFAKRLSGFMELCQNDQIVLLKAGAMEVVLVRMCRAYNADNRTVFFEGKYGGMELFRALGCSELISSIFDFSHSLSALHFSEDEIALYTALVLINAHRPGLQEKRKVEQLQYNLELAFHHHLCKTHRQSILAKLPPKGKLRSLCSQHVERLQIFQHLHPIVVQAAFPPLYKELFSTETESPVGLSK

[2] = target: T2, Nuclear receptor ROR-alpha (Mus musculus) (UniProt P51448); details: CHO-K1
T2 sequence (whole entry): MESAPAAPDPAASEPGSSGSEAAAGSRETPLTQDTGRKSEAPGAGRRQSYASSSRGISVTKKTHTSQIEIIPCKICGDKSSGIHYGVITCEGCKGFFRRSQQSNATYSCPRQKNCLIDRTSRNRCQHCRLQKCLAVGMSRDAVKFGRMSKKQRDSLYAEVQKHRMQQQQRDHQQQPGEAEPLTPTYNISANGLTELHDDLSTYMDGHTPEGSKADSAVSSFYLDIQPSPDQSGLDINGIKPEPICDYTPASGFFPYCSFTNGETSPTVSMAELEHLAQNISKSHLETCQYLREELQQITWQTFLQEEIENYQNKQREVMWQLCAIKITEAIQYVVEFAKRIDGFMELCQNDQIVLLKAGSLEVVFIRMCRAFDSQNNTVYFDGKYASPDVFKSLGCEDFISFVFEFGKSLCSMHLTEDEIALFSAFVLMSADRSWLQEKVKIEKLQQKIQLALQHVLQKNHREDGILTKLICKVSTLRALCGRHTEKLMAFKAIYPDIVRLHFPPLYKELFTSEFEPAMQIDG
Description: Inverse agonist activity at mouse ROR alpha expressed in CHO-K1 cells after 24 hrs by luciferase reporter gene assay relative to vehicle control response

[3] = target: T3, Nuclear receptor ROR-gamma (Mus musculus) (UniProt P51450); details: CHO-K1
T3 sequence (whole entry): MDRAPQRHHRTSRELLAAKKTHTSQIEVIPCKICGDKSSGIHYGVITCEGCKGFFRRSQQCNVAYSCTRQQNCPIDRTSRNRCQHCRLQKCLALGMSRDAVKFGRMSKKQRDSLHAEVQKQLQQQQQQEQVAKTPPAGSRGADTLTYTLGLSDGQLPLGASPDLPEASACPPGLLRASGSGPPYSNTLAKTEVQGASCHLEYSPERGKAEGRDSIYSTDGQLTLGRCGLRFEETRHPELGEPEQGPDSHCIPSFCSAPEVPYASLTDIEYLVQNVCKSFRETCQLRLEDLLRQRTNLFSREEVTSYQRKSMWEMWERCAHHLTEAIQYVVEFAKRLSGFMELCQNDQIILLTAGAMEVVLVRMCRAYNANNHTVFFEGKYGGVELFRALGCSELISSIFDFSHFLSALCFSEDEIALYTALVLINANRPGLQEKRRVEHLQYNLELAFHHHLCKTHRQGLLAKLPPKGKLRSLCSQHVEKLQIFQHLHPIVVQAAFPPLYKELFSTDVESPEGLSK
Description: Inverse agonist activity at mouse ROR gamma expressed in CHO-K1 cells after 24 hrs by luciferase reporter gene assay relative to vehicle control response

[4] = target: T1, Nuclear receptor ROR-gamma; assay: Displacement of 25-[3H]hydroxycholesterol from GST-tagged ROR gamma ligand binding domain (unknown origin) expressed in Escherichia coli BL21 gold (DE3) cells by radioligand competition assay
[5] = target: T1, Nuclear receptor ROR-gamma; assay: Agonist activity at human His6-tagged ROR gamma ligand binding domain (residues 262 to 507) expressed in Escherichia coli BL21 (DE3) cells assessed as increase in recruitment of coactivator peptide by AlphaScreen biochemical assay; type: functional
[6] = target: T4, Nuclear receptor ROR-gamma (Homo sapiens) (UniProt P51449); assay: Binding affinity to human ROR gamma ligand binding domain assessed as thermal stability shift by circular dichroism analysis
T4 sequence (whole entry): T1 sequence (P51449 whole entry)

[7] = target: T1, Nuclear receptor ROR-gamma; assay: Agonist activity at full length human ROR gamma expressed in human Jurkat cells assessed as IL17 promoter activation by luciferase reporter gene assay; type: functional, cell-based
[8] = target: T5, Oxysterols receptor LXR-alpha (Homo sapiens) (UniProt Q13133); assay: Activation of GAL4-fused LXR alpha (unknown origin) expressed in HEK293T cells after 20 hrs relative to T0901317; type: cell-based; details: HEK-293T
T5 sequence (whole entry): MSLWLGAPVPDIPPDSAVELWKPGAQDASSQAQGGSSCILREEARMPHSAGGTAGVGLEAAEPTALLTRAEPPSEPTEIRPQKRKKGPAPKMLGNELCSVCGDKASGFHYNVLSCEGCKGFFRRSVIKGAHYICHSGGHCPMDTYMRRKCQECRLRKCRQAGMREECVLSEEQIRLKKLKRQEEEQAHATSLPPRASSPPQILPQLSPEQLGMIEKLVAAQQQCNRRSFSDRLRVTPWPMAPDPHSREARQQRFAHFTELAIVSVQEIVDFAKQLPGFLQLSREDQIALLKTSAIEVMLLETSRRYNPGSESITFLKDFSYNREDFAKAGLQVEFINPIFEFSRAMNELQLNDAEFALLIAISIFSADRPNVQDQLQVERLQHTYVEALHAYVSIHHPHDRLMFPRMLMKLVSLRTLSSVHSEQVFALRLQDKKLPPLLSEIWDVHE

[9] = Plasma concentration in mouse at 10 mg/kg, ip administered as single dose after 1 hr; type: ADME, organism-based; parameters: dose 10 mg/kg, route intraperitoneal
[10] = Plasma concentration in mouse at 10 mg/kg, ip administered as single dose after 8 hrs; type: ADME, organism-based; parameters: dose 10 mg/kg, route intraperitoneal
[11] = target: T4, Nuclear receptor ROR-gamma (Homo sapiens); assay: Agonist activity at ROR gamma in human CD4+ T cells assessed as IL-17 production at 3 uM by ELISA; type: cell-based; details: T-cell

SMILES: CC(c1ccccc1)(c1ccc(O)cc1)c1ccc(O)cc1
- IC50 [1]: > 10000 nM

SMILES: CCCCC(O)(Cn1cncn1)c1ccc(Cl)cc1Cl (centres undefined)
- IC20 [2]: 10000 nM
- IC20 [3]: 3000 nM

SMILES: CC(C)CCC[C@@H](C)[C@H]1CC[C@H]2[C@@H]3[C@@H](O)C=C4C[C@@H](O)CC[C@]4(C)[C@H]3CC[C@]12C
- Ki [4]: 10 nM

SMILES: CC(C)CCC[C@@H](C)[C@H]1CC[C@H]2[C@@H]3[C@H](O)C=C4C[C@@H](O)CC[C@]4(C)[C@H]3CC[C@]12C
- Ki [4]: 10 nM

SMILES: CC(C)CC[C@H](O)[C@@H](C)[C@H]1CC[C@H]2[C@@H]3CC=C4C[C@@H](O)CC[C@]4(C)[C@H]3CC[C@]12C
- EC50 [5]: 20 nM

- melting temperature shift (delta Tm) [6]: 3 °C
- EC50 [7]: 100 nM
SMILES: CCC(=O)Nc1ccc2nn(-c3ccc(CC)cc3)nc2c1

SMILES: CC(C)CCC[C@@](C)(O)[C@H]1CC[C@H]2[C@@H]3CC=C4C[C@@H](O)CC[C@]4(C)[C@H]3CC[C@@]21C
- EC50 [5]: 20 nM

SMILES: CC(C)[C@@H](O)CC[C@@H](C)[C@H]1CC[C@H]2[C@@H]3CC=C4C[C@@H](O)CC[C@]4(C)[C@H]3CC[C@]12C
- Ki [4]: 10 nM

- melting temperature shift (delta Tm) [6]: 3 °C
- EC50 [7]: 100 nM
SMILES: Cc1cccc(C(=O)Nc2cc(-c3ccccc3)no2)c1

SMILES: O=S(=O)(c1ccccc1)N(CC(F)(F)F)c1ccc(C(O)(C(F)(F)F)C(F)(F)F)cc1
- IC20 [2]: 12000 nM

- Activity [8]: < 5%
SMILES: CC(=O)N1CCN(Cc2ccc(-c3ccc(C(O)(C(F)(F)F)C(F)(F)F)cc3)cc2)CC1

- concentration at 1 h [9]: 3.6 µM
- concentration at 8 h [10]: > 0.8 µM
SMILES: O=C(Nc1ccc(C(O)(C(F)(F)F)C(F)(F)F)cc1)c1ccc(C(F)(F)F)cc1

- melting temperature shift (delta Tm) [6]: 3 °C
- Activity [11]: 220%
- EC50 [7]: 100 nM
SMILES: Cc1cc(C)c2nc(NC(=O)c3sccc3C)sc2c1
